PubChem BioAssay (NCI)
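The compound was tested at five concentrations on cells cultured in 96-well plates, with a 48-hour exposure period. Here, GI50 denotes the concentration required for 50% inhibition of growth. TGI marks complete inhibition of growth.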

Tests used:
Test in all cases: NCI-60 cell line screen, 48 h
[1] = system: MOLT-4 leukemia
[2] = system: HL-60(TB) leukemia
[3] = system: HCT-15 colon
[4] = system: NCI-H23 lung
[5] = system: SNB-75 CNS
[6] = system: T-47D breast
[7] = system: SK-MEL-28 melanoma
[8] = system: TK-10 renal
[9] = system: OVCAR-3 ovarian

Structure (SMILES) | TGI [1] [µM] | TGI [2] [µM] | TGI [3] [µM] | TGI [4] [µM] | TGI [5] [µM] | TGI [6] [µM] | TGI [7] [µM] | TGI [8] [µM] | TGI [9] [µM] | GI50 [1] [µM] | GI50 [2] [µM] | GI50 [3] [µM] | GI50 [4] [µM] | GI50 [5] [µM] | GI50 [6] [µM] | GI50 [7] [µM] | GI50 [8] [µM] | GI50 [9] [µM]
CC(NC1=NCCO1)c1cccc([N+](=O)[O-])c1 (centres undefined) | > 100 | > 100 | > 100 | > 100 | > 100 | > 100 | > 100 | > 100 | > 100 | – | – | – | – | – | – | – | – | –
O=C1CCC2(CC1CCSc1ccccc1)OCCO2 (centres undefined) | > 100 | > 100 | > 100 | > 100 | > 100 | > 100 | > 100 | > 100 | > 100 | – | – | – | – | – | – | – | – | –
O=C1OC2(C(F)(F)F)Oc3ccccc3CN2C12CCCCC2 (centres undefined) | 54.3 | 40.5 | 84.1 | 95.2 | 59.1 | > 100 | > 100 | > 100 | > 100 | – | – | – | – | – | – | – | – | –
O=C(NC1(C(=O)NNc2nnc(-c3ccccc3)c(-c3ccccc3)n2)C(c2ccccc2)C(c2ccccc2)=NN1c1ccccc1)c1ccccc1 (centres undefined) | > 100 | > 100 | > 100 | > 100 | > 100 | > 100 | – | > 100 | > 100 | – | – | – | – | – | – | – | – | –
S=c1nc2[nH]c3ccc(Br)cc3c2n[nH]1 | > 100 | 50.5 | > 100 | – | 94.9 | > 100 | > 100 | > 100 | > 100 | – | – | – | – | – | – | – | – | –
CCOP(=O)(OCC)/C(=C\N1C(=O)CC(=O)NC1=S)C(=O)OC | > 100 | > 100 | > 100 | > 100 | > 100 | > 100 | > 100 | > 100 | > 100 | – | – | – | – | – | – | – | – | –
NC(c1ccccc1)(C(F)(F)F)P1(=O)OC(=O)c2ccccc2O1 (centres undefined) | > 100 | – | > 100 | > 100 | > 100 | > 100 | > 100 | > 100 | > 100 | – | – | – | – | – | – | – | – | –
O=C(NNc1cn[nH]c(=O)c1Cl)/C(=C/c1ccc2c(c1)OCO2)NC(=O)c1ccccc1 | > 100 | – | > 100 | > 100 | 86.2 | > 100 | > 100 | > 100 | > 100 | – | – | – | – | – | – | – | – | –
CCOC(=O)c1c2c(n3ccc(NC(=O)OC(C)(C)C)cc13)C(=O)c1ncccc1C2=O | 7.52 | 0.38 | 1.49 | 0.669 | 1.72 | 5.31 | 1.4 | 3.39 | – | 0.78 | 0.0256 | 0.0195 | 0.147 | 0.167 | 0.382 | 0.232 | 0.132 | –
C=C1C(=O)O[C@H]2C/C(C)=C/CC/C(C)=C/CC[C@@](C)(O)[C@@H](I)C[C@@H]12 | > 26.2 | 14.6 | 20.1 | 2.43 | 25.1 | 32.1 | 30 | 23.6 | 24.9 | – | – | – | – | – | – | – | – | –
Cc1nccn1S(=O)(=O)c1ccc(Br)cc1Br | 96.1 | 51.5 | > 100 | > 100 | 57.9 | > 100 | > 100 | > 100 | 55.4 | – | – | – | – | – | – | – | – | –
Cc1ccc(-n2c(O)c3c(N)n[nH]c3c(C#N)c2=O)cc1 | > 100 | > 100 | > 100 | > 100 | > 100 | > 100 | > 100 | > 100 | > 100 | – | – | – | – | – | – | – | – | –
CCOC(=O)c1c2c(n(-c3ccc(OC)cc3)c1C)C(=O)C(=O)c1ccccc1-2 | > 100 | – | 8.13 | 3.24 | 4.09 | 4.44 | 3.89 | 3.33 | 1.34 | 1.66 | – | – | – | – | – | – | – | –
CN1C/C(=C\c2ccc(Cl)cc2)C(=O)/C(=C/c2ccc(Cl)cc2)C1 | – | – | – | > 22.3 | > 100 | > 100 | > 100 | > 100 | 6.57 | – | – | – | – | – | – | – | – | –
c1cc(C[S+]2CCCC2)ccc1C[S+]1CCCC1 | > 100 | > 100 | > 100 | > 100 | > 100 | > 100 | > 100 | > 100 | > 100 | – | – | – | – | – | – | – | – | –
Cc1cn(CC2=NCCCN2)c(=O)[nH]c1=O | > 100 | – | > 100 | > 100 | > 100 | > 100 | > 100 | > 100 | – | – | – | – | – | – | – | – | – | –
COC(=O)c1ccc(CCc2cc(O)ccc2O)cc1 | 15.3 | 5.96 | 27.5 | > 54.9 | 21.2 | 7.91 | 42.2 | 45.8 | 12.1 | – | – | – | – | – | – | – | – | –
O=C(c1ccccc1)c1c(C(F)(F)F)n([O-])c2cc(Cl)c(Cl)cc2[n+]1=O | 1.56 | 2.06 | 2.76 | 1.11 | 2.58 | 3.03 | 7.19 | 2.56 | 0.815 | – | – | – | – | – | – | – | – | –
Nc1ccc(-c2nc3cc(F)ccc3s2)cc1I | > 100 | > 100 | > 66.5 | 18.9 | 33.8 | 97.2 | > 100 | 21.1 | > 37.9 | – | – | – | – | – | – | – | – | –
C1#Cc2ccccc2OCCOc2ccccc2C#Cc2ccccc2OCCOc2ccccc21 | 31.3 | > 100 | > 100 | 34.8 | – | > 100 | > 100 | > 100 | 39.3 | – | – | – | – | – | – | – | – | –
COc1ccc(C(=C(I)c2ccccc2)c2ccc(OC)cc2)cc1 | > 100 | > 100 | > 100 | > 100 | – | > 100 | > 100 | > 100 | > 100 | – | – | – | – | – | – | – | – | –
Nc1ccccc1NC(=O)CCCCCCC(=O)Nc1ccc2c(c1)/C(=C/c1ccc[nH]1)C(=O)N2 | > 100 | > 100 | > 100 | > 100 | – | > 100 | > 100 | – | > 100 | 2.9 | 1.8 | > 100 | > 100 | – | 3.67 | > 100 | – | 5.42
